Measurements published in PMC4885035, “Pathway for Biodegrading Nodularin (NOD) by Sphingopyxis sp. USTB-05” (Toxins, 2016).

System: crude enzymes (CEs) of Sphingopyxis sp. USTB-05
Type: in vitro ADME
Settings: NOD 11.6 mg/L with CEs 570 mg/L protein, 30 °C, HPLC-UV 238 nm; for fate of the biodegradation product in the presence of CEs: followed to 36 h
Method: Bacterial cells of USTB-05 in the logarithmic growth phase of the third day were harvested by centrifugation at 8000 r/min for 20 min at room temperature. The bacterial pellet was subsequently washed three times with 50 mM phosphate buffer solution (PBS, pH 7.0). Afterwards, the cells were resuspended in 30 mL PBS, and then disrupted using an ultrasonic disruptor with an output power of 600 W for 15 min in an ice bath. […].
The total biodegradation reaction volume was 5 mL containing 570 mg/L, 380 mg/L, and 211 mg/L proteins in PBS in each 10 mL centrifuge tube, respectively. […]. The reaction was performed at 30 °C and 200 r/min. Samples of 500 μL for each were taken after 0, 3, 6, 12, 24, and 36 h, respectively, and then 5 μL of concentrated hydrochloric acid (36%, v/v) was added to stop the reaction. A control bottle was prepared in the same way without CEs. All samples were centrifuged at 13,000 r/min for 10 min and then the concentrations of residual NOD and its products in supernatants were analyzed using HPLC. All experiments were carried out in triplicate.
NOD and its enzymatic biodegradation products were firstly analyzed using a HPLC system (Shimadzu LC-10ATVP, Shimadzu Co., Ltd., Kyoto, Japan) with an ultraviolet (UV) Diode Array Detector at 238 nm using a Agilent TC-C18 column (4.6 mm × 250 mm) (Agilent Technologies Inc., 1200 series, Santa Clara, CA, USA). […]. The flow rate was 1 mL/min and the injection amount was 20 μL. The concentration of NOD was determined by calibration of peak area (at 238 nm) with that of the standard NOD. The biodegradation products that contained Adda were monitored by HPLC based on the assumption that their molar absorption coefficient at 238 nm is the same as NOD.

## CO[C@@H](Cc1ccccc1)[C@@H](C)/C=C(C)/C=C/[C@H](N)[C@H](C)C(=O)O [product B, (2S,3S,8S,9S)-3-amino-9-methoxy-2,6,8-trimethyl-10-phenyldeca-4(E),6(E)-dienoic acid]
  time at which the product peak appeared on HPLC during enzymatic biodegradation of NOD: 6 h
  fate of the biodegradation product in the presence of CEs: always increased over time until 36 h

## CC=C(C(=O)N[C@@H](C(=O)O)[C@H](C)C(=O)N[C@@H](CCCNC(=N)N)C(=O)O)N(C)C(=O)CC[C@@H](NC(=O)[C@@H](C)[C@@H](N)/C=C/C(C)=C/[C@H](C)[C@H](Cc1ccccc1)OC)C(=O)O [product A]
  time at which the product peak appeared on HPLC during enzymatic biodegradation of NOD: 3 h
  fate of the biodegradation product in the presence of CEs: completely converted to product B
